Data taken from US11840686B2, “Modulation of prekallikrein (PKK) expression” (Ionis Pharmaceuticals, Inc., priority 2013, dated 2023).
Strand notation (5' to 3'): a small letter for the sugar, then the base; units joined by * are phosphorothioate-linked, units joined directly phosphodiester-linked; [ ] holds rarer units or linkages, { } end groups; capitals alone tell only the bases. e = 2'-O-(2-methoxyethyl) (MOE); [5mC] = 5-methylcytosine; d = 2'-deoxy (DNA)

system: human PKK mRNA; assay: Antisense inhibition of human PKK mRNA in HepaRG cells, 3,000 nM (Example 1); format: cell-based; conditions: Table 1; PKK mRNA, HepaRG cells, 3,000 nM, electroporation, ~24 h, relative to untreated control cells
Outline: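 HepaRG cells, 20,000 per well, were electroporated with 3,000 nM 5-10-5 MOE gapmer (phosphorothioate, 5-methylcytosine). After about 24 h, PKK mRNA was measured by qRT-PCR with primer probe set RTS3454 and normalised to RIBOGREEN total RNA. Values are percent inhibition versus untreated cells.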

Point of comparison: “530983 (antisense eA*eT*eG*eG*e[5mC]*dA*dG*dG*dG*dT*dT*d[5mC]*dA*dG*dG*eT*eA*eA*eA*eG) [compound 530983]”, “% inhibition” value 9%. Against it:
- 530951 (antisense e[5mC]*eA*eA*eA*e[5mC]*dA*d[5mC]*d[5mC]*dT*dT*dG*dG*dG*dT*dG*eG*eA*eA*eT*eG) [compound 530951] — higher, 49%
- 530993 (e[5mC]*eA*eA*eA*e[5mC]*dA*dT*dT*d[5mC]*dA*d[5mC]*dT*d[5mC]*d[5mC]*dT*eT*eT*eA*eA*e[5mC]; antisense) [compound 530993] — higher, 30%
- 530950 (antisense eA*e[5mC]*e[5mC]*eT*eT*dG*dG*dG*dT*dG*dG*dA*dA*dT*dG*eT*eG*e[5mC]*eA*e[5mC]) [compound 530950] — higher, 47%
- 530994 (e[5mC]*eT*eT*eG*eG*d[5mC]*dA*dA*dA*d[5mC]*dA*dT*dT*d[5mC]*dA*e[5mC]*eT*e[5mC]*e[5mC]*eT; antisense) [compound 530994] — higher, 50%
- 530944 (antisense e[5mC]*eA*eG*eA*e[5mC]*dA*dT*d[5mC]*d[5mC]*dA*d[5mC]*dA*dG*dG*dA*eA*eA*e[5mC]*eT*eG) [compound 530944] — lower, 0%
- 530945 (antisense eA*eT*e[5mC]*e[5mC]*e[5mC]*d[5mC]*dA*d[5mC]*d[5mC]*dT*d[5mC]*dT*dG*dA*dA*eG*eA*eA*eG*eG) [compound 530945] — lower, 0%
- 530987 (eA*e[5mC]*eT*e[5mC]*e[5mC]*d[5mC]*dG*dG*dG*dT*dA*dA*dA*dT*dT*eT*eT*eA*eG*eA; antisense) [compound 530987] — lower, 0%
- 30929 (antisense eA*eA*e[5mC]*eG*eG*dT*d[5mC]*dT*dT*d[5mC]*dA*dA*dG*d[5mC]*dT*eG*eT*eT*e[5mC]*eT) [compound 30929] — higher, 59%
- 530957 (antisense eG*eG*e[5mC]*eA*eA*dG*d[5mC]*dA*d[5mC]*dT*dT*dA*dT*dT*dT*eG*eA*eT*eG*eA) [compound 530957] — higher, 56%
- 530968 (antisense e[5mC]*eA*eA*eG*eA*dT*dG*d[5mC]*dT*dG*dG*dA*dA*dG*dA*eT*eG*eT*eT*e[5mC]) [compound 530968] — higher, 18%
- 530999 (e[5mC]*eA*eG*eT*e[5mC]*dT*dT*d[5mC]*dT*dG*dG*dG*dA*dG*dT*eA*eA*eA*eG*eA; antisense) [compound 530999] — higher, 31%

same assay, conditions: Table 2; PKK mRNA, HepaRG cells, 3,000 nM, electroporation, ~24 h, relative to untreated control cells

Point of comparison: “531045 (antisense eT*eT*eT*e[5mC]*eT*dG*dG*d[5mC]*dA*dT*dT*d[5mC]*dT*dT*d[5mC]*eA*eT*eT*eT*eG) [compound 531045]”, “% inhibition” value 37%. Against it:
- 531081 (eT*eG*eG*eT*eT*dT*dT*dT*dG*dG*dA*dA*dT*dT*d[5mC]*eT*eG*eA*eA*eA; antisense) [compound 531081] — lower, 14%
- 531009 (eT*eT*eT*eG*eT*dT*d[5mC]*d[5mC]*dT*d[5mC]*d[5mC]*dA*dA*d[5mC]*dA*eA*eT*eG*e[5mC]*eG; antisense) [compound 531009] — higher, 65%
- 531074 (e[5mC]*eT*eT*eT*eG*d[5mC]*dA*dG*dA*dT*dG*dA*dG*dG*dA*e[5mC]*e[5mC]*e[5mC]*e[5mC]*e[5mC]; antisense) [compound 531074] — higher, 67%
- 531030 (antisense eA*eA*eT*eT*e[5mC]*dA*dG*dT*dG*dT*dA*dA*dT*dT*d[5mC]*eA*eA*eA*eG*eG) [compound 531030] — lower, 24%
- 531059 (antisense eA*e[5mC]*eA*eT*eT*d[5mC]*d[5mC]*dA*dT*dT*dG*dT*dG*dT*dT*eT*eG*e[5mC]*eA*eA) [compound 531059] — higher, 55%
- 531073 (e[5mC]*e[5mC]*e[5mC]*eA*eG*dG*d[5mC]*dT*d[5mC]*dA*dG*dA*dA*dT*dT*eT*eG*eA*e[5mC]*eT; antisense) [compound 531073] — higher, 51%
- 531075 (e[5mC]*e[5mC]*eA*eT*eG*d[5mC]*dT*dT*dT*dG*d[5mC]*dA*dG*dA*dT*eG*eA*eG*eG*eA; antisense) [compound 531075] — higher, 64%

same assay, conditions: Table 3; HepaRG cells, electroporation with 3,000 nM antisense oligonucleotide, approx. 24 hours; PKK mRNA by RT-PCR (RTS3454), relative to untreated control cells

Point of comparison: “531143 (antisense e[5mC]*eA*eT*eG*eG*dA*dA*dA*dA*dA*dT*dT*dA*dA*dG*e[5mC]*eT*e[5mC]*eA*eT) [compound 531143]”, “% inhibition” value 0%. Against it:
- 531133 (antisense eT*eT*eT*eT*eG*dT*dT*dG*dT*dG*d[5mC]*dA*dG*dA*d[5mC]*eT*eG*eA*eA*eA) [compound 531133] — higher, 19%
- 531092 (e[5mC]*e[5mC]*eT*eT*e[5mC]*dA*d[5mC]*dT*dG*dA*d[5mC]*dT*d[5mC]*dT*d[5mC]*eT*eT*eT*eT*e[5mC]; antisense) [compound 531092] — higher, 24%
- 531146 (antisense e[5mC]*e[5mC]*eA*eG*eT*dG*dT*dA*dA*dT*dT*d[5mC]*dA*dA*dA*eG*eG*eA*eG*e[5mC]) [compound 531146] — higher, 40%
- 531147 (antisense e[5mC]*e[5mC]*eA*eT*eT*dA*dT*dT*dT*d[5mC]*d[5mC]*dA*dT*d[5mC]*dA*e[5mC]*e[5mC]*eT*eG*e[5mC]) [compound 531147] — higher, 18%
- 531085 (eA*eG*eG*e[5mC]*eA*d[5mC]*dA*dG*dA*dG*d[5mC]*d[5mC]*dA*dG*d[5mC]*eA*e[5mC]*e[5mC]*e[5mC]*eA; antisense) [compound 531085] — higher, 9%
- 531128 (antisense eA*eA*eG*eT*eT*d[5mC]*d[5mC]*dA*d[5mC]*d[5mC]*dT*dT*d[5mC]*dT*dA*eA*e[5mC]*eT*eG*eG) [compound 531128] — higher, 18%
- 531145 (antisense eG*e[5mC]*e[5mC]*eT*eA*dG*dG*dA*dG*dA*dG*dA*dA*dA*dA*eA*eT*eA*eA*eA) [compound 531145] — the same, 0%
- 531095 (e[5mC]*eT*eA*eA*e[5mC]*dA*dA*d[5mC]*d[5mC]*d[5mC]*d[5mC]*dA*d[5mC]*dA*dA*eT*eA*eT*e[5mC]*eA; antisense) [compound 531095] — higher, 20%
- 531134 (antisense eT*eT*eA*e[5mC]*e[5mC]*d[5mC]*dA*dT*d[5mC]*dA*dA*dA*dG*d[5mC]*dA*eG*eT*eG*eG*eG) [compound 531134] — higher, 6%
- 531114 (antisense eA*eG*eA*eG*eT*d[5mC]*dA*dA*dG*dT*d[5mC]*d[5mC]*dA*d[5mC]*dA*eG*eA*e[5mC]*eA*eT) [compound 531114] — higher, 40%
- 531105 (e[5mC]*eT*e[5mC]*e[5mC]*eT*d[5mC]*d[5mC]*d[5mC]*d[5mC]*dA*dG*dG*d[5mC]*dT*dG*e[5mC]*eT*e[5mC]*e[5mC]*eT; antisense) [compound 531105] — higher, 16%

same assay, conditions: Table 4; HepaRG cells, electroporation with 3,000 nM antisense oligonucleotide, approx. 24 hours; PKK mRNA by RT-PCR (RTS3454), relative to untreated control cells

Point of comparison: “531189 (eA*eG*eG*eT*eG*dT*dT*d[5mC]*dT*dT*dG*d[5mC]*dT*dT*dA*eT*e[5mC]*e[5mC]*eT*e[5mC]; antisense) [compound 531189]”, “% inhibition” value 63%. Against it:
- 531201 (eT*eT*eT*e[5mC]*e[5mC]*dA*dA*dT*dA*d[5mC]*dT*dT*dT*dT*dA*e[5mC]*eA*eA*eA*eT; antisense) [compound 531201] — lower, 52%
- 531180 (antisense e[5mC]*e[5mC]*eT*e[5mC]*eT*dT*dA*dA*dG*dT*d[5mC]*dA*d[5mC]*d[5mC]*dA*eT*eA*eG*eA*e[5mC]) [compound 531180] — lower, 45%
- 531190 (eG*e[5mC]*eA*eG*eT*d[5mC]*dA*d[5mC]*dT*d[5mC]*d[5mC]*dT*d[5mC]*dT*dT*e[5mC]*e[5mC]*eA*eG*e[5mC]; antisense) [compound 531190] — lower, 59%
- 531185 (antisense eG*eG*eA*e[5mC]*e[5mC]*dA*dA*dA*dA*d[5mC]*dT*dG*dA*dG*dA*eG*eG*e[5mC]*eA*eG) [compound 531185] — the same, 63%
- 531196 (eT*eT*eG*eA*eG*dT*d[5mC]*dA*dG*dA*d[5mC]*dA*dT*d[5mC]*d[5mC]*eT*eG*eT*eG*eA; antisense) [compound 531196] — lower, 38%
- 531199 (e[5mC]*eT*eT*eT*eG*dA*dA*dT*dA*dG*dA*dA*dA*dA*dT*eG*eA*e[5mC]*eT*eA; antisense) [compound 531199] — lower, 1%
- 531166 (antisense eA*eG*eA*e[5mC]*eA*dG*dT*dA*dA*dA*d[5mC]*dA*dA*dA*dA*eT*e[5mC]*eA*eG*eG) [compound 531166] — lower, 12%
- 531207 (e[5mC]*e[5mC]*eA*e[5mC]*eT*dT*dA*dT*dT*dT*dG*dA*dT*dG*dA*e[5mC]*e[5mC]*eA*e[5mC]*eA; antisense) [compound 531207] — higher, 64%
- 531205 (eA*e[5mC]*eA*eT*eT*dT*dT*dT*dT*dA*dA*dG*dT*dA*d[5mC]*eA*eG*eG*eA*eA; antisense) [compound 531205] — lower, 0%
- 531218 (eG*eA*eT*eA*eA*dT*dT*d[5mC]*dT*dT*dT*dT*d[5mC]*dA*d[5mC]*eA*eG*eA*e[5mC]*eA; antisense) [compound 531218] — higher, 72%
- 531219 (e[5mC]*eT*eT*e[5mC]*eT*d[5mC]*dT*dA*dT*d[5mC]*dT*d[5mC]*d[5mC]*d[5mC]*dA*eG*eT*eG*eT*eT; antisense) [compound 531219] — lower, 61%
- 531214 (eT*eT*eT*eT*eT*d[5mC]*dT*dT*dT*dA*dA*dA*dT*dT*dT*eT*eG*e[5mC]*eT*eA; antisense) [compound 531214] — lower, 37%
- 531193 (eT*eT*eA*eT*eT*d[5mC]*d[5mC]*d[5mC]*dA*dG*d[5mC]*dT*d[5mC]*dT*dA*eA*eA*eA*eT*eA; antisense) [compound 531193] — lower, 23%
- 531224 (eA*eA*eG*eA*eG*dA*dA*dT*dG*d[5mC]*dT*d[5mC]*dA*dG*dA*eA*eA*eT*eG*eG; antisense) [compound 531224] — lower, 25%
